Experiments:
MRP2 = test system: MRP2; design: method as in PMID 15670588; settings: 25 µmol/L; ref [65]; cited from earlier work
HUVEC = test system: HUVEC; design: method as in Liu et al. [53]; settings: 50 µmol/L, 48 h; ref Liu et al. [53]; cited from earlier work
MCF-7 cells [1] = assay: Mitochondrial membrane potential (JC-1) in MCF-7 cells; type: cell-based, human
Protocol: (§1) Unless otherwise indicated, in experiments, cells were seeded at an appropriate density for the specific assay into 96-well plates or Petri dishes. They were then incubated in standard culture conditions, which included a temperature of 37 °C, 100% relative humidity, and a 5% CO2 incubator. […] After treatment, the cells were washed with PBS and, depending on the experiment, immediately used for measurement or cultured in a fresh medium for 24 or 48 h. Control cells were treated with a corresponding volume of PBS. Additional controls for solvents were also performed.
The mitochondrial membrane potential was measured with the membrane-permeant JC-1 fluorescent probe. […] Thus, the measurement of the ratio of JC-1 dimer to monomer fluorescence can be used for estimating changes in mitochondrial membrane potential (ΔΨm).
The cells were then incubated in complete darkness for 30 min at 37 °C. After incubation, the cells were washed to remove the dye and suspended in fresh HBSS solution. Finally, the fluorescence intensity was measured using a Cary Eclipse spectrofluorometer (Varian, Inc.) at λex/em = 475 nm/530 nm for monomers and at λex/em = 535 nm/590 nm for dimers. Subsequently, the ratio of the fluorescence intensities at 530 nm/590 nm was calculated. The mitochondrial potential in both cell lines was measured immediately after incubation with investigated compounds. The results are expressed as a percentage of the control, considered 100%.

[2] = test system: cleaved PARP in HUVEC-ST cells; assay: Cleaved PARP In-Cell ELISA in HUVEC-ST cells; type: cell-based, human
Protocol: as §1
(§2) The expression of the protein was monitored using a target-specific primary antibody against an 85 kDa stable fragment of PARP proteolysis and a horseradish peroxidase-conjugated detection reagent.
(§3) The amount of cleaved PARP was measured in cells according to the manufacturer’s protocol immediately after the treatment and after 24 or 48 h postincubation. The absorbance was measured at a wavelength of λ = 450. Additionally, the whole cell staining was performed with Janus Green dye, and the absorbance was measured at a wavelength of λ = 615. […] Subsequently, the values were calculated as a fold increase, which means the ratio of an increased amount of cleaved PARP to the amount of cleaved PARP in control cells.

HUVEC-ST cells = assay: Cytometric measurement of doxorubicin accumulation in HUVEC-ST cells; type: cell-based, human; settings: 22 h preincubation with flavonoid IC50, 1 h study period
Protocol: The aromatic rings in the hydrophobic part of doxorubicin give the drug molecule fluorescent properties (λex = 490 nm, λem = 590 nm). Thus, the flow cytometric measurement of drug fluorescence inside the cells allows for the monitoring of its transport rate through the cell membrane. The increase in the intensity of drug fluorescence inside the cells is highly correlated with its accumulation.
The DOX was added to the cell suspension to achieve a final concentration equal to the IC50 value. During one hour of incubation (temp 37 °C) with the drug, samples for cytometric measurement were taken from the cell suspension after the first 5 min and then after every 10 min. Samples were analyzed using the flow cytometer LSR® II from Becton Dickinson (San Jose, CA, USA) using an argon laser with a wavelength of λ = 488 nm. Doxorubicin fluorescence intensity was calculated per single cell.

MCF-7 cells [3] = assay: Alkaline comet assay in MCF-7 cells; type: cell-based, human
Protocol: as §1
The comet assay, also known as the single-cell gel electrophoresis assay, is a highly sensitive and versatile method for measuring single- and double-stranded DNA breaks. The assay uses an electric field to move negatively charged DNA fragments through an agarose gel. The amount of migration reflects the level of DNA damage in the cells.
The analysis was performed under alkaline conditions, according to the method of Singh et al., on cells immediately after the treatment and 24 or 48 h postincubation. […] One hundred randomly chosen cells were analyzed on each slide using a fluorescence microscope Zeiss Axio Scope A1 (Carl Zeiss, Oberkochen, Germany) with a video camera connected to the image-analysis system Lucia-Comet v. […]

MRP1 = test system: MRP1; design: method as in PMID 15670588; settings: 25 µmol/L; ref [65]; cited from earlier work
MCF-7 cell [4] = test system: MCF-7 cell; design: method as in Liu et al. [48]; settings: ref Liu et al. [48]; read-out: IC50, MCF-7 cell growth inhibition; cited from earlier work
MCF-7 cells [5] = assay: Flavonoid-drug combination index (MTT, CompuSyn) in MCF-7 cells; type: cell-based, human
Protocol: The experiment with a non-constant combination of BLIN and BLEIN with DOX or DTX was carried out to determine the synergistic, additive, or antagonistic effect between investigated flavonoids and anticancer drugs. […] Subsequently, cell viability was determined by MTT assay. […] The results were presented as a combination index (CI).

MCF-7 cell [6] = test system: MCF-7 cell; design: method as in Wang et al. [49]; settings: 5–100 µmol/L for 72 h; ref Wang et al. [49]; cited from earlier work
[7] = test system: cleaved PARP in MCF-7 cells; assay: Cleaved PARP In-Cell ELISA in MCF-7 cells; type: cell-based, human; settings: docetaxel + flavonoid IC50, most intense of all times and combinations
Protocol: as §1, §2, §3

[8] = doxorubicin IC50 after 22 h preincubation with flavonoid IC50
[9] = flavonoid IC50 alone 24 h, control = 100%
[10] = flavonoid IC10 22 h preincubation + DOX IC50 2 h
[11] = flavonoid IC10 22 h preincubation + DTX IC50 2 h
[12] = flavonoid IC50 22 h preincubation + DOX IC50 2 h
[13] = flavonoid IC50 22 h preincubation + DTX IC50 2 h

O=c1cc(-c2ccccc2)oc2cc(O)c(O)c(O)c12 [baicalein, 5,6,7-Trihydroxyflavone]
Inhibition of MRP2 protein activity (MRP2): inhibit the activity of MRP2 and MRP1 proteins | Viable HUVECs, % of the control (HUVEC): 37% ± 3% | Mitochondrial membrane potential ΔΨm, % of control (MCF-7 cells [1]; docetaxel IC50 after 22 h preincubation with flavonoid IC50): 18% | Mitochondrial membrane potential ΔΨm, % of control (MCF-7 cells [1]; [8]): 20% | Mitochondrial membrane potential ΔΨm, % of control (MCF-7 cells [1]; [9]): 30% | Amount of cleaved PARP relative to control cells ([2]; doxorubicin + flavonoid IC50, 48 h after incubation): twice higher than in control cells | Amount of cleaved PARP relative to control cells ([2]; flavonoid IC50 alone, 24 and 48 h after incubation): nearly two times higher than in control cells | Enhancement of doxorubicin accumulation/influx (HUVEC-ST cells): increased doxorubicin accumulation was maintained for the whole study period | DNA in the comet tail (MCF-7 cells [3]; docetaxel IC50 + flavonoid IC50, 24 h after incubation): 16% | DNA in the comet tail (MCF-7 cells [3]; docetaxel IC50 + flavonoid IC50, immediately after incubation): 19% | Inhibition of MRP1 protein activity (MRP1): inhibit the activity of MRP2 and MRP1 proteins | IC50 (MCF-7 cell [4]): 85.1 ± 1.26 µM | Combination index (CI) (MCF-7 cells [5]; [10]): 1.073 | Combination index (CI) (MCF-7 cells [5]; [11]): 1.08 | Combination index (CI) (MCF-7 cells [5]; [12]): 0.3412 | Combination index (CI) (MCF-7 cells [5]; [13]): 0.6276

O=C(O)[C@H]1O[C@@H](Oc2cc3oc(-c4ccccc4)cc(=O)c3c(O)c2O)[C@H](O)[C@@H](O)[C@@H]1O [baicalin, baicalein 7-O-β-D-glucuronide]
Viable HUVECs, % of the control (HUVEC): 61% ± 8% | Inhibitory effect on MCF-7 cell proliferation (MCF-7 cell [6]): did not observe any inhibitory effect | Mitochondrial membrane potential ΔΨm, % of control (MCF-7 cells [1]; [8]): 31% | Mitochondrial membrane potential ΔΨm, % of control (MCF-7 cells [1]; [9]): 30% | Enhancement of doxorubicin accumulation/influx (HUVEC-ST cells): observed only during the first 30 min of the study | PARP cleavage, fold increase to control [7]: 2.5 fold | Combination index (CI) (MCF-7 cells [5]; [10]): 1.158 | Combination index (CI) (MCF-7 cells [5]; [11]): 0.9652 | Combination index (CI) (MCF-7 cells [5]; [12]): 0.6435 | Combination index (CI) (MCF-7 cells [5]; [13]): 0.5421

From article PMC11173533, “Baicalin and Baicalein Enhance Cytotoxicity, Proapoptotic Activity, and Genotoxicity of Doxorubicin and Docetaxel in MCF-7 Breast Cancer Cells” (Molecules, 2024)
